# Measurements published in patent publication US9198903B2, “Method of treating or preventing thrombosis in a patient with 5-HT2A receptor antagonist thromboserin” (Thromboserin Limited, priority 2007, dated 2015).
# Experiments:
# alpha-1 adrenergic = details: cited from earlier work
# [1] = in the presence of hypokalaemia; cited from earlier work
# platelets = experiment: Platelet count (full blood count) in cross-over study; assay type: in vivo, human patients
# Method: (§1) Study design: Randomised controlled double blind cross-over study: 2 weeks 5HT2A receptor antagonist (Thromboserin) (10 mg twice daily) or placebo, wash out period of 2 weeks and cross over to other arm for further two weeks. Side effects, and compliance documented in both groups. Blood sampling/Assays: Blood samples obtained at baseline, 2 weeks (the end of phase 1), 4 weeks (the end of phase 2), at 6 weeks (the end of phase 3) and 2 weeks after the completion of the study. The following assays were obtained. • Full blood count, urea, electrolytes, creatinine, liver function tests and glucose • Blood levels of Thromboserin • Bleeding time • Surface expression of the platelet activation markers P-selectin and fibrinogen. These were measured using whole blood flow cytometry. Measurement after incubation with agonists such as ADP was also performed in order to assess the platelet responsiveness to stimuli. • Ultegra Rapid Platelet Function Assay (RPFA). Methods: Venepuncture: Venous blood was collected into vacutainers by clean venepuncture with 19G butterfly and adaptor, using tourniquet to locate the vein only. The first 5 mL of blood was used for full blood count, and subsequent samples collected in order for the platelet tests and others. Clinical symptoms and signs were also recorded. The other observations were: routine full blood count by Clinical Haematology Laboratory, ARI, and U&Es, creatinine, Liver Function tests and blood glucose by Clinical Biochemistry Laboratory, ARI.
# [2] = Clinical biochemistry (liver function tests, glucose, urea, creatinine, electrolytes) in cross-over study; assay type: in vivo, human patients; details: Thromboserin vs placebo
# Method: as §1, with “Venepuncture:” for “Venepuncture: Venous blood was collected into vacutainers by clean venepuncture with 19G butterfly and adaptor, using tourniquet to locate the vein only. The first 5 mL of blood was used for full blood count, and subsequent samples collected in order for the platelet tests and others.”
# [3] = Skin bleeding time in randomised double blind cross-over study; assay type: in vivo, human patients; details: first 13 patients, drug 10 mg twice daily vs placebo cross-over courses
# Excerpt: Objective: To evaluate whether inhibition platelets can be accompanied by no increase in bleeding time, by means of serotonin 5HT2A receptor antagonism. Study population: Patients with a history of intermittent claudication (IC) or coronary heart disease (CHD) recruited. There were 48 patients studied, all of whom were Caucasian, aged 69±6.6 years and of which 38 were male and 10 female. Patients with IC have clinical findings of peripheral vascular disease and an ABPI <0.9. Patients with CHD have chronic stable angina and angiographic evidence of coronary artery disease (stenosis of >70% in at least one major coronary artery). Study design: Randomised controlled double blind cross-over study: 2 weeks 5HT2A receptor antagonist (Thromboserin) (10 mg twice daily) or placebo, wash out period of 2 weeks and cross over to other arm for further two weeks. Side effects, and compliance documented in both groups. Skin bleeding time was performed, contra-laterally from venepuncture. A suitable area of forearm was shaved if necessary and cleaned with alcohol swab. A sphygmomanometer cuff was inflated on the upper arm to 40 mmHg. One incision was made with Surgicutt bleeding device ([…], Hertfordshire), and a stopwatch was started. […] The bleeding time was recorded to the nearest 30 seconds.
Structure (SMILES),Alpha-1 adrenergic activity (in words) (alpha-1 adrenergic),Pro-arrhythmic properties (in words) [1],"Probability of no Difference: Platelet count (platelets; Thromboserin 10 mg twice daily 2 weeks vs placebo, Wilcoxon)","Probability of no Difference: Platelet count over 6 weeks (platelets; Thromboserin vs placebo, Repeated measures ANOVA)","Probability of no Difference: Platelets, excluding 4 patients With abnormal count (platelets; Thromboserin vs placebo, Wilcoxon)",Probability of no Difference: Alanine amino transferase ([2]; Wilcoxon),Probability of no Difference: Gamma GT ([2]; Wilcoxon),"Probability of no Difference: Gamma GT, In patients with abnormal values ([2]; Wilcoxon)",Probability of no Difference: Alkaline phosphatase ([2]; paired t test),Change of bleeding time (in words) [3]
O=C(c1ccc(F)cc1)C1CCN(CCn2c(=O)[nH]c3ccccc3c2=O)CC1 [Ketanserin],alpha-1 adrenergic antagonistic properties,pro-arrhythmic properties,,,,,,,,
CN(C)C(C)(C)CSc1nc2ccccc2cc1-c1ccccc1.Cl [Thromboserin],,,0.0416,0.0233,0.0214,0.0021,0.0216,0.0266,0.0034,no significant rise in bleeding time
